Measured values as given in patent publication US20070042014A1, “Combination of a serotonin reuptake inhibitor and loxapine” (H. Lundbeck A/S, priority 2003, published 2007).

Test system: 5-HT levels in ventral hippocampus
Assay: Microdialysis of brain serotonin (5-HT) levels in ventral hippocampus of rats
Type: in vivo, rat
Settings: loxapine alone; male Wistar rats
Experimental: Male albino rats of a Wistar-derived strain (285-320 g; Harlan, Zeist, The Netherlands) were used for the experiments. Upon surgery, rats were housed individually in plastic cages (35×35×40 cm), and had free access to food and water. Animals were kept on a 12 h light schedule (light on 7:00 a.m.). The experiments are concordant with the declarations of Helsinki and were approved by the animal care committee of the faculty of mathematics and natural science of the University of Groningen.
Preceding surgery rats were anaesthetised using isoflurane (O2/N2O; 300/300 ml/min). Lidocaine-HCl, 10% (m/v) was used for local anaesthesia.
Rats were allowed to recover for at least 24 h. […]
Twenty-μl microdialysate samples were injected via an autoinjector (CMA/200 refrigerated microsampler, CMA, Sweden) onto a 100×2.0 mm C18 Hypersil 3 μm column (Bester, Amstelveen, the Netherlands) and separated with a mobile phase consisting of 5 g/L di-ammoniumsulfate, 500 mg/L EDTA, 50 mg/L heptane sulphonic acid, 4% methanol v/v, and 30 μl/L of triethylamine, pH 4.65 at a flow of 0.4 ml/min (Shimadzu LC-10 AD). 5-HT was detected amperometrically at a glassy carbon electrode at 500 mV vs Ag/AgCl (Antec Leyden, Leiden, The Netherlands). […]

CN1CCN(C2=Nc3ccccc3Oc3ccc(Cl)cc32)CC1 [loxapine]
effect on 5-HT levels in ventral hippocampus (microdialysis, % of control level): no significant effect
